Measurements from PubChem BioAssay AID179 (DTP/NCI, 2004).
The source made the active and inactive calls.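 How the source made its calls: active means compounds giving half or more protection of infected cells from virus-caused growth loss, again on retest; inactive means the rest.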

System: CEM cells HIV-1 protection, formazan growth assay
Test: NCI AIDS Antiviral Assay
Conditions: for IC50: measured here: growth of uninfected CEM cells
In short: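 Human CEM cells, uninfected and HIV-1-infected, received five drug concentrations, and growth was read by soluble formazan assay. Compounds giving at least 50% protection were retested; reproducible 100% protection defined confirmed active.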

Row | SMILES | EC50 [µM] | IC50 [µM] | outcome
1 | O=C(Nc1ccc([N+](=O)[O-])cc1)C1C(=O)C(=O)N(c2ccc([N+](=O)[O-])cc2)C1=O (configuration not stated) | > 234 | > 234 | –
2 | COc1cccc(C(=O)C#Cc2cnc(OC)nc2OC)c1 | > 0.2 | 0.0437 | –
3 | O=C(Nc1ccc2[nH]c(=S)sc2c1)Nc1ccccc1F | > 200 | 33.1 | –
4 | CC1(C)CCc2ccc(OCCC(=O)O)cc2O1 | – | – | inactive
5 | C[C@H](Nc1nc(N)c(N=O)c(=O)n1C)C(=O)O | > 200 | > 200 | –
6 | Cc1cc(C)c(S(=O)(=O)N(CCCCCCN)OCCCN)c(C)c1 | > 200 | 30.2 | –
7 | CCCCC(CC)CN(Cc1cc(CN(CC(CC)CCCC)CC(CC)CCCC)c(O)c(CN(CC(CC)CCCC)CC(CC)CCCC)c1)CC(CC)CCCC (configuration not stated) | > 200 | 34.7 | –
8 | N#CCCn1[nH]c(=O)c(Cl)c(Cl)c1=O | > 1070 | 5.62 | –
9 | CCOC(=O)c1cnc2c(ccc3ncccc32)c1OCC | > 120 | 72.4 | –
10 | O=C1OC(CC(=O)c2ccc(Cl)cc2)C(Cl)=C1Cl (configuration not stated) | > 85.1 | > 85.1 | –
11 | C[C@]12CC[C@H](O)CC1=CC[C@@H]1[C@@H]2CC[C@]2(C)C(=O)CC[C@@H]12 | > 126 | 83.2 | –
12 | Oc1cc(O)c2c(c1)OC(c1ccc(O)c(O)c1)C(O)C2c1c(O)cc(O)c2c1OC(c1ccc(O)c(O)c1)C(O)C2 (configuration not stated) | > 200 | 102 | –
13 | Clc1ccc2sc3c(c2c1)CCNC3 | – | – | inactive
14 | OC(c1ccccc1)(c1cccnc1)C(O)(c1ccccc1)c1cccnc1 (configuration not stated) | > 200 | > 200 | –
15 | CC(C)(C)OC(=O)CN1CCN(CC(=O)N2CCN(C(=O)OCc3ccccc3)CC2)CCN(CC(=O)OC(C)(C)C)CCN(CC(=O)N2CCN(C(=O)OCc3ccccc3)CC2)CC1 | > 100 | 1.29 | –
16 | CCOC(=O)N(C)C(=C(F)F)C(F)(F)F | > 200 | > 200 | –
17 | CCOC(=O)C1C(=O)CC2c3nc4ccccc4cc3CN2C1=O (configuration not stated) | > 10 | > 10 | –
18 | CC(=O)O[C@H]1C#C/C=C\C#CC[C@@H]2C(=O)N(C(=O)OC(C)(C)C)[C@@H]12 | > 20 | 1.12 | –
19 | COc1cnc(NS(=O)(=O)c2ccc(N)cc2)nc1 | > 200 | > 200 | –
20 | CCOC(=O)c1nc2ccc(C(F)(F)F)cc2nc1Oc1cc(OC)c(OC)c(OC)c1 | > 100 | > 100 | –
21 | Cc1cc(O)ccc1N=O | > 200 | 3.39 | –
22 | COC(=O)CCCc1ccc2c(c1)CC1(C2)Cc2cc3c(cc2C1)CCCC3 | > 200 | 81.3 | –

Row | SMILES | EC50 [µM] | IC50 [µM] | outcome
23 | CCCCCCCCCCCCc1ccsc1-c1ccc(-c2ccc(-c3sc(-c4cc(CCCCCCCCCCCC)c(-c5ccc(-c6ccc(-c7sccc7CCCCCCCCCCCC)s6)s5)s4)cc3CCCCCCCCCCCC)s2)s1 | > 50.1 | > 50.1 | –
24 | CC1=NN(C(=O)CC(=O)Nc2ccccc2)C(=O)C1N=Nc1ccc(S(N)(=O)=O)cc1 (configuration not stated) | > 151 | 75.9 | –
25 | CCOC(=O)c1nc2ccccc2nc1NCc1ccc(OC)cc1 | > 138 | 70.8 | –
26 | N#CC(/C(=N/N=C(N)N)C(=O)Nc1ccccc1[N+](=O)[O-])c1nc(-c2ccc([N+](=O)[O-])cc2)cs1 (configuration not stated) | > 27.5 | > 27.5 | –
27 | Cc1[nH]c(=O)[nH]c(=O)c1N(CCF)CCCl | > 1000 | 89.1 | –
28 | NNc1ncnc2cccc(Cl)c12 | > 200 | > 200 | –
29 | Cc1cccc(C)c1NC(=O)CCCC(=O)CC(=O)/C=C/c1ccccc1 | > 501 | > 501 | –
30 | O=C1c2cccc(O)c2C(=O)c2cccc(O)c21 | > 4.37 | > 4.37 | –
31 | O=C1NC(=S)NNC12c1ccccc1-c1ccccc12 | > 200 | 33.9 | –
32 | O=C(CCCCCCCCC(=O)NCC1(c2ccccc2)CCN(Cc2ccccc2)CC1)NCC1(c2ccccc2)CCN(Cc2ccccc2)CC1 | > 200 | 102 | –
33 | CC1=C(C(=S)Nc2ccc(Cl)c(C(=O)OC(C)C)c2)SCCO1 | 0.024 | 64.6 | –
34 | O=C(N/N=C\c1ccco1)c1ccncc1 | > 200 | > 200 | –
35 | O=c1oc(-c2ccccc2Br)ns1 | > 100 | 52.5 | –
36 | O=C(N/N=C(/c1nc2ccc(Cl)cc2[nH]c1=O)C(O)c1ccc(Cl)cc1Cl)c1ccncc1 (configuration not stated) | > 501 | 162 | –
37 | CS(=O)(=O)SCCCS(=O)(=O)O | > 912 | > 912 | –
38 | N=c1n(CC(=O)NC23CC4CC(CC(C4)C2)C3)c2ccccc2n1Cc1ccc(Cl)cc1 | > 53.7 | 4.79 | –
39 | O=C(CC/C(C/C(=N/O)c1ccc(F)cc1)=N/O)N(Cc1ccccc1)Cc1ccccc1 | > 112 | > 112 | –
40 | c1csc(-c2cc(-c3ccsc3)cs2)c1 | > 200 | > 200 | –
41 | Cc1ccc(/C=C2/N=C([Se])N(C)C2=O)cc1 | > 18.6 | > 18.6 | –
42 | CC1(C)O[C@]2(C)CC[C@@H]1[C@@H](O)[C@@H]2N1CCCCC1 | > 380 | > 380 | –
43 | CCOC(=O)C1(Cc2ccc3c(c2)CCC3)Cc2cc3c(cc2C1=O)CCC3 (configuration not stated) | > 200 | 23.4 | –
44 | COc1ccc(N2C(=O)C3c4[nH]c5ccccc5c4C4CC(C)(C)CC(C)(C)C4C3C2=O)cc1 (configuration not stated) | > 4.37 | > 4.37 | –

Row | SMILES | EC50 [µM] | IC50 [µM] | outcome
45 | COC(=O)C12C3C=CC(O3)C1C1C=CC2O1 (configuration not stated) | – | – | inactive
46 | COc1ccc(/C=C2\CCC(C)/C(=C\c3ccc(OC)c(OC)c3)C2=O)cc1OC (configuration not stated) | > 151 | 7.94 | –
47 | Cc1c(O)c(O)c(C)c(CCN)c1O | > 200 | 11 | –
48 | CCN(CC)C(=O)C1(C)NS(=O)(=O)c2ccccc2C1=O (configuration not stated) | > 200 | > 200 | –
49 | Cc1ccccc1NC(=O)C(=O)CC(=O)c1ccc([N+](=O)[O-])cc1 | > 8.32 | > 8.32 | –
50 | Cc1nc(N)c(N2CCN(S(=O)(=O)N(Cc3ccccc3)Cc3ccccc3)CC2)c(=O)[nH]1 | > 195 | 120 | –
51 | CC12CC[C@H](O)C(C)(C)[C@H]1CC[C@](C)(O)C2COc1ccc2ccc(=O)oc2c1 (some centres not stated) | > 324 | 288 | –
52 | O=C(N/C(=C\c1cc(Cl)ccc1Cl)c1nc2ccc(Cl)cc2[nH]1)c1ccccc1 | – | – | inactive
53 | CCOC(OC1=C(C#N)CCCC1)C(C)[Se]c1ccccc1 (configuration not stated) | > 20 | > 20 | –
54 | COC(=O)[C@@H](NC(=O)N(CCC#N)CCCN(C(=O)N[C@H](Cc1ccccc1)C(=O)OC)c1ccccc1)C(C)C | > 200 | 87.1 | –
55 | O=c1[nH]nc2ccccc2c1Cl | > 39.8 | 6.76 | –
56 | COc1cccc(NC(=O)CC(=O)N2N=C(n3ccc4ccccc43)CC2c2ccccc2)c1 (configuration not stated) | – | – | inactive
57 | N#Cc1c(N)oc(-c2cccc([N+](=O)[O-])c2)c1C#N | > 200 | 10.7 | –
58 | CC#CC(O)(C(=O)OC1CCC2CCC1N2C)C1CCCC1 (configuration not stated) | > 200 | > 200 | –
59 | O=C(c1c2c(cc3c1CC1(Cc4cc5c(cc4C1)CCCC5)C3)CCCC2)C(Br)Br | > 100 | 4.9 | –
60 | O=C1NC(N2CCOCC2)=N/C1=C\c1ccccc1 | > 200 | > 200 | –
61 | CC(C)c1cc(C(C)C)c(S(=O)(=O)N/N=C2\CC3CCC2(C)C3(C)C)c(C(C)C)c1 (configuration not stated) | > 200 | 18.6 | –
62 | O=C(Nc1cc2c(oc1=O)CCCCC2)c1cnccn1 | > 100 | > 100 | –
63 | CCCCOC(=O)NC(Nc1ccc(S(=O)(=O)Nc2ncccn2)cc1)(C(F)(F)F)C(F)(F)F | > 200 | > 200 | –
64 | CCCCCC#COC1CC(C)CC[C@@H]1C(C)C (some centres not stated) | > 200 | 110 | –
65 | O=S1(=O)CS(=O)(=O)OCCCCO1 | > 1070 | 63.1 | –
66 | COc1ccc(S(=O)(=O)Cc2ccc(C(=O)O)cc2)cc1 | > 813 | > 813 | –

Row | SMILES | EC50 [µM] | IC50 [µM] | outcome
67 | O=C1N[C@@H]([C@H](CCCCCO)OC(=O)c2ccccc2)CO1 | > 200 | > 200 | –
68 | CS1(C)=NC(=O)C2=C(N=1)c1ccccc1S2(=O)=O | > 47.9 | > 47.9 | –
69 | COc1ccc(-c2oc3c(OC)c(OC)cc(O)c3c(=O)c2OC)cc1 | > 200 | > 200 | –
70 | COC(=O)CC(C)(NS(=O)c1ccc(C)cc1)c1ccccc1 (configuration not stated) | > 200 | 120 | –
71 | O=P(O)(O)CC1OC(CO)C(O)C1O (configuration not stated) | > 200 | > 200 | –
72 | CCCC1C(C#N)(C#N)C(C#N)=C(N)C1(C)C(C)=O (configuration not stated) | > 200 | > 200 | –
73 | COc1cc(CC(=O)c2cc3c(cc2-c2ccccc2)OCO3)cc(OC)c1OC | > 89.1 | 24 | –
74 | Cc1ccc(NC(=O)CSc2nc(C)nc3c2sc(=S)n3-c2ccccc2)cc1 | > 200 | 138 | –
75 | COCCOCCOCCOc1ccc(C(C#N)N(CCc2ccccc2)C(=O)c2cc(C(=O)N(CCc3ccccc3)C(C#N)c3ccc(OCCOCCOCCOC)cc3)cc(C(=O)N(CCc3ccccc3)C(C#N)c3ccc(OCCOCCOCCOC)cc3)c2)cc1 (configuration not stated) | > 200 | > 200 | –
76 | Cc1ccccc1SSCCN | – | – | inactive
77 | CCOC(=O)C(=CNc1ccc(NC2=NCC(C)S2)cc1)C(=O)OCC (configuration not stated) | > 200 | 3.24 | –
78 | CC1CC(C)(C)N=C(CCC[N+](=O)[O-])O1 (configuration not stated) | > 200 | > 200 | –
79 | CCOc1ccc(NC(=O)CC2C(=O)Nc3ccccc3S2=O)cc1 (configuration not stated) | > 7.59 | > 7.59 | –
80 | Cn1ccn2c3nc4ccccc4nc3c(=O)c(C#N)c12 | – | – | inactive
81 | COc1cc(Br)c(OC)c2c(OC)cc(C)cc12 | > 200 | 35.5 | –
82 | COC1=CC(=O)c2ccc(C(C)C)cc2C1(C)C1=NC(C)(C)CO1 (configuration not stated) | > 151 | > 151 | –
83 | C1=C(N2CCOCC2)N(c2ccccc2)c2ccccc2N=C1N1CCCC1 | – | – | inactive
84 | CC(=O)NC(=O)CC(=O)c1ccccc1 | > 631 | > 631 | –
85 | Nc1nc2c(c(=O)[nH]1)CNC2=O | > 200 | > 200 | –
86 | COc1ccc2c(ccc3nc(CCC(=O)O)n(C)c(=O)c32)c1 | > 794 | 229 | –
87 | COc1ccc(Br)c(CN2CCc3ccccc32)c1OS(=O)(=O)c1ccc(C)cc1 | – | – | inactive
88 | CC1(C)[C@H](CO)C(CO)[C@@H]1n1cnc2c(N)ncnc21 (some centres not stated) | > 912 | > 912 | –
